Reference: ChEMBL document CHEMBL3608289, “Miltirone Is a Dual Inhibitor of P-Glycoprotein and Cell Growth in Doxorubicin-Resistant HepG2 Cells” (J Nat Prod, 2015)
Calls of active or inactive are those of the source. The calls are words filed in the database; no cut-off is given here.

Experiments:
HepG2 [1] = experiment: Induction of necrosis in human HepG2 cells assessed as LDH leakage at >50 uM after 24 hrs; type: functional, cell-based
[2] = molecular target: T1, Mitogen-activated protein kinase; ERK1/ERK2 (Homo sapiens) (UniProt P27361+P28482); experiment: Inhibition of ERK1/2 phosphorylation in human doxorubicin-resistant HepG2 cells expressing p-gp at 1.56 to 25 uM by Western blot analysis in presence of NAC; type: cell-based
T1 sequence (P27361 whole entry, looked up): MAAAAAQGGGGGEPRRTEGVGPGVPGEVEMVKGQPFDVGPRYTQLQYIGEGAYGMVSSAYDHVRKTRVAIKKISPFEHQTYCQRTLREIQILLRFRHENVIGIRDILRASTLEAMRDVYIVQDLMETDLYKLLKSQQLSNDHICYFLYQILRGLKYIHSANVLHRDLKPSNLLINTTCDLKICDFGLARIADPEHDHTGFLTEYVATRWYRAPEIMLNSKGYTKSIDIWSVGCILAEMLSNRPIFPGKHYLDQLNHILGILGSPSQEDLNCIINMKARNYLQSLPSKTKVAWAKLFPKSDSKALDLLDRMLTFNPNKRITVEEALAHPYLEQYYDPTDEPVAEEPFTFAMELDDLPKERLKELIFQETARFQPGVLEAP
T1 sequence (P28482 whole entry, looked up): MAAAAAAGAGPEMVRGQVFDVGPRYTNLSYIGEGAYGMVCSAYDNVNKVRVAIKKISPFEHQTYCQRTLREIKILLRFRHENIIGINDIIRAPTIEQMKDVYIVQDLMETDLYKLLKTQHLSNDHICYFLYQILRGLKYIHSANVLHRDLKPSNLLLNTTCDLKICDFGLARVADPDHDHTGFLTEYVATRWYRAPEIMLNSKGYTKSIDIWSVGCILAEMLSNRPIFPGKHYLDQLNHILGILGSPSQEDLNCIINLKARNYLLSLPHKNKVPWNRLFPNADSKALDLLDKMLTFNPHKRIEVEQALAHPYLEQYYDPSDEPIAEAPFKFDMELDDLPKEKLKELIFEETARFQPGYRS

HepG2 [3] = experiment: Competitive inhibition of p-glycoprotein in doxorubicin-resistant human HepG2 cells assessed as reduction of doxorubicin efflux after 1 hr by primary Lineweaver-Burk plot analysis; type: cell-based
HepG2 [4] = experiment: Effect on nonphosphorylated ERK1/ERK2 level in human HepG2 cells at 25 uM by Western blot analysis; type: ADME, cell-based; details: hepg2, 25 µM
HepG2 [5] = experiment: Effect on nonphosphorylated ERK1/ERK2 level in human doxorubicin-resistant HepG2 cells expressing p-gp at 25 uM by Western blot analysis; type: ADME, cell-based; details: hepg2, 25 µM
HepG2 [6] = experiment: Increase of SAPK/JNK phosphorylation in human doxorubicin-resistant HepG2 cells expressing p-gp at 1.56 to 25 uM by Western blot analysis in presence of NAC; type: cell-based
HepG2 [7] = experiment: Induction of necrosis in human doxorubicin-resistant HepG2 cells expressing p-gp assessed as LDH leakage at >50 uM after 24 hrs; type: functional, cell-based
HepG2 [8] = experiment: Induction of apoptosis in human doxorubicin-resistant HepG2 cells expressing p-gp assessed as activation of caspase-3/8/9 at 12.5 after 24 hrs by Western blotting in presence of Z-IETD-FMK; type: functional, cell-based
HepG2 [9] = experiment: Induction of ROS generation in human HepG2 cells after 15 to 30 mins using CM-H2DCFDA by flow cytometry; type: functional, cell-based
HepG2 [10] = experiment: Induction of necrosis in human doxorubicin-resistant HepG2 cells expressing p-gp assessed as LDH leakage at 25 uM after 24 hrs; type: functional, cell-based
HepG2 [11] = experiment: Induction of oxidative stress in human doxorubicin-resistant HepG2 cells expressing p-gp assessed as decrease of GSH level per gram of protein at 6.25 to 25 uM after 24 hrs using DTNB by enzymatic kinetic method relative to control; type: functional, cell-based
[12] = Cytotoxicity against human PLC/PRF/5 cells after 24 hrs by MTT assay; type: functional, cell-based; details: PLC-PRF-5, 24 h
HepG2 [13] = experiment: Induction of apoptosis in human doxorubicin-resistant HepG2 cells expressing p-gp assessed as increase in PARP cleavage after 24 hrs by Western blotting; type: functional, cell-based
HepG2 [14] = experiment: Cytotoxicity against human doxorubicin-resistant HepG2 cells expressing p-gp after 24 hrs by MTT assay; type: functional, cell-based; details: HepG2, 24 h
HepG2 [15] = experiment: Induction of oxidative stress in human doxorubicin-resistant HepG2 cells expressing p-gp assessed as decrease of GSH level per gram of protein at 1.56 to 3.12 uM after 24 hrs using DTNB by enzymatic kinetic method relative to control; type: functional, cell-based
HepG2 [16] = experiment: Induction of oxidative stress in human doxorubicin-resistant HepG2 cells expressing p-gp assessed as decrease of GSSG level per gram of protein at 25 uM after 24 hrs using DTNB by enzymatic kinetic method relative to control; type: functional, cell-based
HepG2 [17] = experiment: Increase of SAPK/JNK phosphorylation in human HepG2 cells at 1.56 to 25 uM by Western blot analysis in presence of NAC; type: cell-based
HepG2 [18] = experiment: Effect on nonphosphorylated SAPK/JNK level in human HepG2 cells at 25 uM by Western blot analysis; type: ADME, cell-based; details: hepg2, 25 µM
[19] = molecular target: T1, Mitogen-activated protein kinase; ERK1/ERK2 (Homo sapiens); experiment: Inhibition of ERK1/2 phosphorylation in human doxorubicin-resistant HepG2 cells expressing p-gp at 1.56 to 25 uM by Western blot analysis; type: cell-based
HepG2 [20] = experiment: Induction of apoptosis in human doxorubicin-resistant HepG2 cells expressing p-gp assessed as activation of caspase-3/8/9 at 12.5 after 24 hrs by Western blotting in presence of Z-VAD-FMK; type: functional, cell-based
HepG2 [21] = experiment: Induction of oxidative stress in human doxorubicin-resistant HepG2 cells expressing p-gp assessed as decrease of GSH level per gram of protein at 25 uM after 24 hrs using DTNB by enzymatic kinetic method relative to control; type: functional
HepG2 [22] = experiment: Induction of apoptosis in human doxorubicin-resistant HepG2 cells expressing p-gp assessed as activation of caspase-3/8/9 after 24 hrs by Western blotting; type: functional, cell-based
HepG2 [23] = experiment: Induction of ROS generation in human HepG2 cells at 25 uM after 15 to 30 mins using H2DCFH dye by confocal microscopy in presence of PEG-SOD; type: functional, cell-based
HepG2 [24] = experiment: Induction of ROS generation in human doxorubicin-resistant HepG2 cells expressing p-gp at 25 uM after 15 mins using H2DCFH dye by confocal microscopy; type: functional, cell-based
HepG2 [25] = experiment: Induction of apoptosis in human HepG2 cells assessed as activation of caspase-3/8/9 at 12.5 after 24 hrs by Western blotting in presence of Z-LEHD-FMK; type: functional, cell-based
[26] = molecular target: T2, MAP kinase p38 (Homo sapiens) (UniProt O15264+Q15759+Q16539+P53778); experiment: Inhibition of p38 MAPK phosphorylation in human doxorubicin-resistant HepG2 cells expressing p-gp at 1.56 to 25 uM by Western blot analysis in presence of NAC; type: cell-based
HepG2 [27] = experiment: Cytotoxicity against human doxorubicin-resistant HepG2 cells expressing p-gp assessed as combination index after 24 hrs by MTT assay in presence of doxorubicin; type: functional
HepG2 [28] = experiment: Effect on nonphosphorylated SAPK/JNK level in human doxorubicin-resistant HepG2 cells expressing p-gp at 25 uM by Western blot analysis; type: ADME, cell-based; details: hepg2, 25 µM
HepG2 [29] = experiment: Induction of apoptosis in human doxorubicin-resistant HepG2 cells expressing p-gp assessed as activation of caspase-3/8/9 at 12.5 after 24 hrs by Western blotting in presence of trolox; type: functional, cell-based
[30] = molecular target: T2, MAP kinase p38 (Homo sapiens); experiment: Inhibition of p38 MAPK phosphorylation in human doxorubicin-resistant HepG2 cells expressing p-gp at 1.56 to 25 uM by Western blot analysis; type: cell-based
[31] = molecular target: T2, MAP kinase p38 (Homo sapiens); experiment: Inhibition of p38 MAPK phosphorylation in human HepG2 cells at 1.56 to 25 uM by Western blot analysis in presence of SB203580; type: cell-based

Compound: CC(C)C1=Cc2ccc3c(c2C(=O)C1=O)CCCC3(C)C [MILTIRONE]
- Activity (HepG2 [1]): Active
- inhibition [2]: inactive
- inhibition (HepG2 [3]): Active
- Activity (HepG2 [4]): Non-toxic
- Activity (HepG2 [5]): Non-toxic
- inhibition (HepG2 [6]): inactive
- Activity (HepG2 [7]): Active
- Activity (HepG2 [8]): inactive
- Activity (HepG2 [9]): Dose-dependent effect
- Activity (HepG2 [10]): inactive
- Activity (HepG2 [11]): Active
- EC50 [12]: 27.1 µM
- Activity (HepG2 [13]): Active
- EC50 (HepG2 [14]): 12 µM
- Activity (HepG2 [15]): inactive
- Activity (HepG2 [16]): inactive
- inhibition (HepG2 [17]): inactive
- Activity (HepG2 [18]): Non-toxic
- inhibition [19]: Active
- Activity (HepG2 [20]): inactive
- Activity (HepG2 [21]): 1.2 µmol
- Activity (HepG2 [22]): Active
- Activity (HepG2 [23]): inactive
- Activity (HepG2 [24]): Active
- Activity (HepG2 [25]): inactive
- inhibition [26]: inactive
- CI (HepG2 [27]): 1.56
- Activity (HepG2 [28]): Non-toxic
- Activity (HepG2 [29]): inactive
- inhibition [30]: Active
- inhibition [31]: inactive
